We go through 11 molecules from patent US5338747A, “Benzoisothiazolinone-1-dioxide derivatives as elastase inhibitors” (Chesebrough-Pond's USA Co., Division of Conopco, Inc., priority 1990, dated 1994).

The target in assay [1] is T1, Human leucocytic elastase (Homo sapiens, UniProt P08246).
T1 sequence (P08246 30-247 limits assumed): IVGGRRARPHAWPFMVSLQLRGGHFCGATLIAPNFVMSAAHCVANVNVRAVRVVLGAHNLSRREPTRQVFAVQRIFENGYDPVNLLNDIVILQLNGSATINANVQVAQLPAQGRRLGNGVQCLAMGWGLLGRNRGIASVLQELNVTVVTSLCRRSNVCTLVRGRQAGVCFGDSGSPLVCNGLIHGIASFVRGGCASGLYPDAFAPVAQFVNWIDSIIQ
The experiment in a line: Inhibition of human leucocytic elastase (succinyltrialanine p-nitroanilide substrate). Conditions: elastase 1 μg/ml, pre-incubated 15 min; 1% acetone; 410 nm. The assay is classed as biochemical. On the procedure:
(§1) The inhibition test was carried out by using succinyltrialanine p-nitroanilide as a synthetic substrate. Human leucocytic elastase, used at a concentration of 1 μg/ml, was first pre-incubated for 15 min with the compounds of the invention, used at a concentration of 0.5, 5, 10, 25 and 50 μg/ml. These compounds were added in the form of a solution in acetone, the final acetone concentration of the reaction mixture being 1%.
The degree of hydrolysis of the substrate was determined by measuring the amount of p-nitroaniline released, using a Philips PO 8700 spectrophotometer at 410 nm. The 50% inhibitory concentration (IC50) in mole/liter was then determined by a graphical method, using the inhibition values obtained with the different concentrations of the substrate and the inhibitor. […] It can thus be seen that the inhibitory action of these compounds increases with the number of carbon atoms in the R^2 group on going from C9 to C17.

Assay [2] concerns the target T1, Human leucocytic elastase. The experiment in a line: Serine protease inhibition, E/IC50: human leucocytic elastase. The assay is classed as biochemical. Conditions: human leucocytic elastase vs thrombin. The procedure: as §1
The degree of hydrolysis of the substrate was determined by measuring the amount of p-nitroaniline released, using a Philips PO 8700 spectrophotometer at 410 nm. […]
The inhibition exerted by the following two compounds on serine-containing proteases other than human Teucocytic elastase was determined in this Example: […]
The appropriate substrate was then added to each enzyme, and its hydrolysis was monitored with a Philips 8700 spectrophotometer at 410 nm by measuring the amount of p-nitroaniline appearing in the medium. […]
(§2) Inhibition of human leucocytic elastase was also determined, as in Example 12.
(§3) To be able to compare the inhibitory power of the compounds tested on the various enzymes used, the E/IC50 value was calculated, where E is the concentration of the enzyme in the reaction mixture (also expressed in mole/l ). […]

The target of the next assay is Pig pancreatic elastase (Sus scrofa, UniProt P00772). The assay can be described thus: Serine protease inhibition, E/IC50: pig pancreatic elastase. The assay is classed as biochemical. Conditions: pig pancreatic elastase vs thrombin. On the procedure: (§4) The inhibition exerted by the following two compounds on serine-containing proteases other than human Teucocytic elastase was determined in this Example:
(§5) More specifically, the activity of a) pig pancreatic elastase, b) trypsin, c) thrombin and d) plasmin was determined in the presence of these inhibitors and of the synthetic substrates: a) succinyltrialanine p-nitroanilide, b) N-benzoyl-DL-arginine p-nitroanilide, c) N-p-tosyl-gly-pro-arg p-nitroanilide and d) N-p-tosyl-gly-pro-lys p-nitroanilide, respectively.
(§6) Each enzyme was first incubated for 15 min with 0-50 μg/ml of compound B or P mentioned above, which had been dissolved in acetone as in the test with human leucocytic elastase, the final concentration of this solvent in the reaction mixture being 1%.
(§7) The appropriate substrate was then added to each enzyme, and its hydrolysis was monitored with a Philips 8700 spectrophotometer at 410 nm by measuring the amount of p-nitroaniline appearing in the medium.
(§8) The results were used to plot the inhibition of the enzymatic activity against the amount of inhibitor present in the medium. […]
as §3

The target in another assay is T2, Trypsin (Bos taurus, UniProt P00760).
T2 sequence (P00760 24-246): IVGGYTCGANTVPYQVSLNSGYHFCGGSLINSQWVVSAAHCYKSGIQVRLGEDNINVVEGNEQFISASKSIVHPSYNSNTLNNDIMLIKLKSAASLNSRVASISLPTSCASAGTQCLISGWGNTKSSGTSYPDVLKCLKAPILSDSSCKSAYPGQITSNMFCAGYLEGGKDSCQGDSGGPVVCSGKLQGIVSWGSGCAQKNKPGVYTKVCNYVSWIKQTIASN
The experiment in a line: Serine protease inhibition, E/IC50: trypsin. The assay is classed as biochemical. On the procedure: as §4, §5, §6, §7
The results were used to plot the inhibition of the enzymatic activity against the amount of inhibitor present in the medium. These curves were then used to find the median inhibitory concentration (IC50) in mole/l, which inhibits 50% of the enzymatic activity.
To be able to compare the inhibitory power of the compounds tested on the various enzymes used, the E/IC50 value was calculated, where E is the concentration of the enzyme in the reaction mixture (also expressed in mole/l ). The higher the value of this quotient, the stronger the inhibitory activity, and therefore the lower the number of moles of the inhibitor that are needed to obtain a 50% inhibition for the same number of moles of the enzyme.

For the next assay, the system named is Plasmin. The experiment in a line: Serine protease inhibition, E/IC50: plasmin. The assay is classed as biochemical. On the procedure: as §4, §5, §6, §7, §8, §3
A further assay concerns serine proteases. The assay can be described thus: Comparison of inhibitory power over all serine proteases used (E/IC50). The assay is classed as biochemical. Conditions: all enzymes of Table 2. On the procedure:
as §4, §5, §6, §7, §8, §2, §3

Assay [3] addresses T1, Human leucocytic elastase. The assay can be described thus: Direct inhibition of elastin-cleaving activity of human leucocytic elastase (first series, elastase pre-incubated with compound). Format: biochemical. Conditions: pH 8.4, 7 h at 37° C. The procedure:
1) Inhibitory action […] Tritiated insoluble elastin extracted from the nuchal ligament was then added in a concentration of 75 μg/ml, corresponding to a radioactivity level of 2.2×10^6 counts per minute (cpm) per ml. The degree of the hydrolysis of elastin was calculated in all three cases after incubation with elastase for 7 h at 37° C. by determining the radioactivity in the solubilized peptides derived from the elastin.

Assay [4] concerns the target T1, Human leucocytic elastase. The experiment in a line: Protective action on insoluble elastin against human leucocytic elastase (second and third series, elastin pre-incubated with compound). Conditions: 50-100 μg/ml, elastin first incubated with compound 30 min or 10 min. The assay is classed as biochemical. On the procedure:
Tritiated insoluble elastin extracted from the nuchal ligament was then added in a concentration of 75 μg/ml, corresponding to a radioactivity level of 2.2×10^6 counts per minute (cpm) per ml. 2) Protective action […] 3) Third series […] The mixture was then centrifuged, the supernatant was discarded, and the residue was suspended in the buffer that contained human leucocytic elastase. The degree of the hydrolysis of elastin was calculated in all three cases after incubation with elastase for 7 h at 37° C. by determining the radioactivity in the solubilized peptides derived from the elastin.

The target of assay [5] is T1, Human leucocytic elastase. The experiment in a line: Protective action on the elastin in rabbit skin sections treated with human leucocytic elastase. Conditions: 1.5 h at 37° C. On the procedure: The segments of rabbit skin were incubated for 1.5 h at 37° C. In the control experiment, they were incubated only with the buffer (100-mM tris-HCl, 0.1% of Brij 35, pH 8) under the same conditions. Thin sections of the skin specimens were then fixed for 2 min in 95% ethanol and stained for 3 h by a modified Verhoeff method, described by Godeau et al. [cf. Pathol. Biol., 32 (1984) pp. 215-6]. After a suitable contrast treatment, the surface density of the elastic fibres was determined by automatic image analysis, carried out directly on the microscope slides.

pIC50: −log10 of the molar value.

Sequence of Pig pancreatic elastase (P00772 27-266): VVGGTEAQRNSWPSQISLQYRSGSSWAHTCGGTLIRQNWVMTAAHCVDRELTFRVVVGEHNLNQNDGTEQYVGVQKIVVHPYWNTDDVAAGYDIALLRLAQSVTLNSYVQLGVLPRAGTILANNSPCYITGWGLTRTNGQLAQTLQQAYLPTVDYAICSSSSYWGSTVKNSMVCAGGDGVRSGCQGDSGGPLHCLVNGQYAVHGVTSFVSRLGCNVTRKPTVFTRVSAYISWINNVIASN

In assay [1], `CCCCCCCCCC(=O)N1C(=O)c2ccccc2S1(=O)=O` [Example 5] had a pIC50 of 4.07.

`COc1ccc(CCCC(=O)N2C(=O)c3ccccc3S2(=O)=O)cc1` [Example 10] had a pIC50 in [1] of 4.44.

With `CCCC(=O)N1C(=O)c2ccccc2S1(=O)=O` [2-butyryl-benzisothiazolinone-1-dioxide], the “inhibition relative to thrombin (in words)” value (in assay [2]; against Pig pancreatic elastase) was “more strongly than it inhibits thrombin” in each case. For the same molecule, the “effect on trypsin (in words)” value at Trypsin (0-50 μg/ml) is listed as “activates trypsin”. Moreover, the E/IC50 result on Trypsin (E = enzyme concentration (mole/l), N-benzoyl-DL-arginine p-nitroanilide substrate) was “activator”; with Plasmin (E = enzyme concentration (mole/l), N-p-tosyl-gly-pro-lys p-nitroanilide substrate) it was “inactive”. Also, the “effect on plasmin (in words)” value in the assay on Plasmin (0-50 μg/ml) is on record as “no effect on plasmin”.

As to `CCCCCCCCCCCCCCCC(=O)N1C(=O)c2ccccc2S1(=O)=O` [Example 3, 2-palmitoyl-benzisothiazolinone-1-dioxide], the pIC50 in [1] was 5.68. Also, the “inhibition relative to thrombin” value (in assay [2]; against Pig pancreatic elastase; at Trypsin (trypsin vs thrombin)) was 20-40 times each time. Further, in the assay with serine proteases, the “inhibitory power relative to butyrylbenzisothiazolinone-1-dioxide (in words)” value is recorded as “better inhibitor than butyrylbenzisothiazolinone-1-dioxide, irrespective of the enzyme used”.

Take `COc1ccc(C=CC(=O)N2C(=O)c3ccccc3S2(=O)=O)cc1OC` [Example 7, 2-[(3,4)-dimethoxycinnamoyl]-benzisothiazolinone-1-dioxide]: the pIC50 in assay [1] was 5.30.

Consider `CCCCCCCCCCCCCCCCCC(=O)N1C(=O)c2ccccc2S1(=O)=O` [Example 4, 2-stearoylbenzisothiazolinone-1-dioxide], for which, in assay [1], the negative-log IC50 (pIC50) was 5.33.

`O=C(C=Cc1ccccc1)N1C(=O)c2ccccc2S1(=O)=O` [Example 8] gave a negative logarithm of the IC50 (pIC50) in assay [1] of 4.05.

In assay [1], `CCCCCCCCCCCCCC(=O)N1C(=O)c2ccccc2S1(=O)=O` [Example 2, 2-myristoylbenzisothiazolinone-1-dioxide] showed a pIC50 of 5.04.

In the case of `O=C(CCc1ccccc1)N1C(=O)c2ccccc2S1(=O)=O` [Example 9], in [1], the pIC50 was 4.32.

`C=CCCCCCCCCC(=O)N1C(=O)c2ccccc2S1(=O)=O` [Example 6, 2-undecenoylbenzisothiazolinone-1-dioxide] had a negative-log IC50 (pIC50) in assay [1] of 4.12.

`CCCCCCCCCCCC(=O)N1C(=O)c2ccccc2S1(=O)=O` [Example 1, 2-lauroylbenzisothiazolinone-1-dioxide]: the pIC50 is 4.96 in assay [1] and 4.12 in assay [3] (elastase 1 μg/ml incubated 10 min with compound). Also, in [3] (45 μg/ml, elastase 1 μg/ml, tritiated insoluble elastin 75 μg/ml), the inhibition at 45 µg/mL turned out to be 80%. Further, the “maximum inhibition (protection of insoluble elastic fibres)” value in [4] came out at 50%. Also, the “volume fraction V occupied by the cutaneous elastic fibres” value in [5] (elastase 15 μg/ml + compound 350 μg/ml, V without elastase 6.25±0.5%, with elastase alone 4.1±0.8%) is reported as 6.00±1%. The inhibition at 350 µg/mL in assay [5] (pH 8, elastase 15 μg/ml + compound 350 μg/ml, read-out: protection from the action of elastase) came to 96%.
